Assay results taken from PMC10534582, “A Pharmacokinetic Study of Sixteen Major Bioactive Components of Jinshui-Huanxian Granules in Pulmonary Fibrosis Model and Control Rats Using Orbitrap Fusion Mass Spectrometry” (Molecules, 2023).
Like-named read-outs stand apart in the source and are kept apart here.

Experiment: Pharmacokinetics of JHG components in control rats after intragastric administration of JHGs (plasma, Orbitrap Fusion MS)
Type: in vivo, Sprague Dawley (SD) rats
Conditions: for AUC(0-inf) / AUC(0-t) / half-life / MRT last / MRT inf / Tmax / Cmax: male, rat, plasma, po; for MRT last: read-out: MRT(0-t); for MRT inf: read-out: MRT(0-∞); for Cmax: intragastric JHGs; for pharmacokinetic process (Cmax and AUCs versus dosage): low, medium, high doses of JHGs
Experimental: Healthy male Sprague Dawley (SD) rats of SPF grade (240 ± 20 g) were purchased from Sipeifu (Beijing, China) Biotechnology Co., Ltd. (Beijing, China), Certificate of Conformity No.: SCYK (Beijing, China) 2019-0015, Animal Quality Certificate No.: 110324220102348616. They were housed in the Animal Center of Henan University of Traditional Chinese Medicine, which passed the ethical audit, ethics number: DWLL202208003, breeding Co. 24 °C, relative humidity 50 ± 2%. The animals fasted for 12 h before the experiment and drank water freely. All feeding and experimental studies on experimental animals were in accordance with the regulations on the Management of Experimental Animals in Henan Province.
Twenty-four healthy male SD rats or PF model rats, weighing 240 ± 20 g, fasted for 12 h before the experiment and drank water freely. Both kinds of rats were randomly divided into four groups. Blank group: equal dose of water by intragastric, low dose; administration group: rats were given the equivalent human dose of JHGs by intragastric, i.e., 10.8 g of raw drug/kg/d (5.70 g/kg/d); medium-dose administration group: 2 times the human equivalent dose of JHGs by intragastric, i.e., 21.6 g of raw drug/kg/d (11.41 g/kg/d); high-dose administration group: 4 times the human equivalent dose of JHG, i.e., 43.2 g of raw drug/kg/d (22.81 g/kg/d). Blood was collected from the tail vein before and 0.083, 0.25, 0.5, 0.75, 1, 1.5, 2, 3, 4, 6, 8, 12, 18, and 24 h after dosing, respectively. A total of 0.5 mL was placed in a heparin sodium centrifuge tube. Whole blood was left for 30 min and then centrifuged in a low-temperature freezing centrifuge (4 °C, 3000 r/min) for 15 min. The upper layer of plasma was collected and stored in a refrigerator at −80 °C.
We added 50 μL of internal standard solution and 800 μL of methanol, shook for 15 min, then centrifuged at 12,000 r/min for 10 min, took the supernatant, dried in a centrifuge concentrator, added 50 μL of the initial mobile phase to the residue, dissolved, centrifuged, then separated the upper layer of the solution used as the test solution. A total of 5 μL test solution was taken into the sample for analysis. For each compound with a certain dosage, the same procedure is repeated six times in parallel. The concentration in plasma was calculated by the internal standard method.
Accucore C18 (100 mm × 2.1 mm, 2.6 μm) column at 25 °C, the mobile phase was methanol (A)-0.1% formic acid aqueous solution (B). The gradient elution program was 0–4 min (65% B-40% B), 4–5 min (40% B-40% B), 5–6 min (40% B-28% B), and 6–7 min (28% B-19% B), 7–7.5 min (19% B-10% B), 7.5–11 min (10% B-0% B), the flow rate was 0.2 mL/min, and the injection volume was 5 μL.
The ion source was an electrospray ionization source (ESI). Nitrogen acted as a carrier gas. The sheath gas pressure was 35 Arb. The auxiliary gas pressure was 7 Arb. The spray voltage was 3.50 kv(+), 2.50 kv(-). The ion transport tube temperature was regulated at 300 °C. Gasification temperature was 275 °C. The resolution was 50,000. The scanning mode was set as SIM mode. The optimized parameters obtained are in Table 5.
Under the established Orbitrap Fusion MS method, the pharmacokinetics of JHG in rats were studied to investigate the dynamic changes of the active components in rats. The pharmacokinetic parameters of each component in each dosing group were calculated by […] model analysis using Kinetica 5.1 (Innaphase, Waltham, MA, USA) pharmacokinetic analysis software. The pharmacotemporal curves were plotted by the plotting software. SPSS 19.0 (IBM, Armonk, NY, USA) was used to analyze all the parameters. Independent sample tests were performed after natural logarithmic transformation for AUC0–t, Cmax. The nonparametric Mann–Whitney test was applied for Tmax, t½, and MRT0–t. p < 0.05 was considered statistically significant.

[1] = Sprague Dawley, 5.7 g/kg/day, JHGs low dose 5.70 g/kg/d
[2] = Sprague Dawley, 5.7 g/kg/day, JHGs low dose 5.70 g/kg/d, read-out: Tmax
[3] = Sprague Dawley, 5.7 g/kg/day, low dose 5.70 g/kg/d, n=6 (1st of 3 stacked values)
[4] = Sprague Dawley, 11.41 g/kg/day, JHGs medium dose 11.41 g/kg/d
[5] = Sprague Dawley, 11.41 g/kg/day, JHGs medium dose 11.41 g/kg/d, read-out: Tmax
[6] = Sprague Dawley, 11.41 g/kg/day, medium dose 11.41 g/kg/d, n=6 (2nd of 3 stacked values)
[7] = Sprague Dawley, 22.81 g/kg/day, JHGs high dose 22.81 g/kg/d
[8] = Sprague Dawley, 22.81 g/kg/day, JHGs high dose 22.81 g/kg/d, read-out: Tmax
[9] = Sprague Dawley, 22.81 g/kg/day, high dose 22.81 g/kg/d, n=6 (3rd of 3 stacked values)
[10] = Sprague-Dawley, after administration of JHGs, read-out: Tmax of all dosages

| Structure (SMILES) | Clearances (JHGs high dose 22.81 g/kg/d) | Vss (JHGs high dose 22.81 g/kg/d) | Clearances (JHGs low dose 5.70 g/kg/d) | Vss (JHGs low dose 5.70 g/kg/d) | Clearances (JHGs medium dose 11.41 g/kg/d) | Vss (JHGs medium dose 11.41 g/kg/d) | AUC(0-inf) [1] | AUC(0-t) [1] | half-life [1] | MRT last [1] | MRT inf [1] | Tmax [2] | Cmax [3] | AUC(0-inf) [4] | AUC(0-t) [4] | half-life [4] | MRT last [4] | MRT inf [4] | Tmax [5] | Cmax [6] | further results |
| --- | --- | --- | --- | --- | --- | --- | --- | --- | --- | --- | --- | --- | --- | --- | --- | --- | --- | --- | --- | --- | --- |
| O=c1cc(-c2ccc(O)cc2)oc2cc(OC3OC(CO)C(O)C(O)C3O)cc(O)c12 (centres unmarked) [Apigenin-7-glucoside] | 7.33 ± 1.2 mL/min/kg | 6.6 ± 0.86 L | 3.3 ± 0.67 mL/min/kg | 3.94 ± 0.41 L | 6 ± 1.3 mL/min/kg | 5.33 ± 0.41 L | 29.1 ± 6.32 ng·h/mL | 20.2 ± 1.99 ng·h/mL | 15.4 ± 4.12 h | 8.84 ± 0.05 h | 20.1 ± 4.89 h | 1.83 ± 0.2 h | 1.99 ± 0.17 ng/mL | 28.9 ± 6.86 ng·h/mL | 22.2 ± 2.68 ng·h/mL | 11 ± 5.32 h | 7.89 ± 0.21 h | 15.3 ± 4.77 h | 1.5 h | 3.22 ± 0.44 ng/mL | AUC(0-inf) [7]: 46.5 ± 7.55 ng·h/mL; AUC(0-t) [7]: 36.5 ± 5.3 ng·h/mL; half-life [7]: 9.62 ± 0.54 h; MRT last [7]: 8.8 ± 0.07 h; MRT inf [7]: 15 ± 0.61 h; Tmax [8]: 1.67 ± 0.29 h; Cmax [9]: 3.88 ± 0.42 ng/mL; Tmax [10]: ≤ 2 h |
| CC1=C2CC3C(CC(=O)C4CC(O)CCC43C)C2CCC12OC1CC(C)CNC1C2C (centres unmarked) [Peimisine] | 3.3 ± 0.5 mL/min/kg | 3.96 ± 0.82 L | 2.5 ± 0.67 mL/min/kg | 3.26 ± 0.57 L | 3.17 ± 0.83 mL/min/kg | 3.98 ± 0.82 L | 19.5 ± 5.73 ng·h/mL | 12.4 ± 2.56 ng·h/mL | 16.5 ± 2.09 h | 9.16 ± 0.22 h | 22.8 ± 3.24 h | 4 h | 1.49 ± 0.16 ng/mL | 26.9 ± 7.93 ng·h/mL | 17.8 ± 4.48 ng·h/mL | 15.2 ± 1.25 h | 9.14 ± 0.03 h | 21.3 ± 1.78 h | 4 h | 2.08 ± 0.54 ng/mL | pharmacokinetic process (Cmax and AUCs versus dosage): linear pharmacokinetic process; AUC(0-inf) [7]: 48.9 ± 9.74 ng·h/mL; AUC(0-t) [7]: 34.9 ± 8.14 ng·h/mL; half-life [7]: 11.4 ± 0.71 h; MRT last [7]: 11.34 ± 0.11 h; MRT inf [7]: 19.8 ± 0.92 h; Tmax [8]: 8 h; Cmax [9]: 2.35 ± 0.53 ng/mL |

The next lines start with results.

| Clearances (JHGs high dose 22.81 g/kg/d) | Vss (JHGs high dose 22.81 g/kg/d) | Clearances (JHGs low dose 5.70 g/kg/d) | Vss (JHGs low dose 5.70 g/kg/d) | Clearances (JHGs medium dose 11.41 g/kg/d) | Vss (JHGs medium dose 11.41 g/kg/d) | AUC(0-inf) [1] | AUC(0-t) [1] | half-life [1] | MRT last [1] | MRT inf [1] | Tmax [2] | Cmax [3] | AUC(0-inf) [4] | AUC(0-t) [4] | half-life [4] | MRT last [4] | MRT inf [4] | Tmax [5] | Cmax [6] | Structure (SMILES) | further results |
| --- | --- | --- | --- | --- | --- | --- | --- | --- | --- | --- | --- | --- | --- | --- | --- | --- | --- | --- | --- | --- | --- |
| 2.5 ± 0.17 mL/min/kg | 1.35 ± 0.09 L | 1 ± 0.17 mL/min/kg | 0.6 ± 0.08 L | 1.3 ± 0.17 mL/min/kg | 0.83 ± 0.06 L | 312 ± 26 ng·h/mL | 290 ± 24.4 ng·h/mL | 5.75 ± 0.55 h | 7.83 ± 0.02 h | 9.56 ± 0.13 h | 6 h | 44 ± 5.61 ng/mL | 433 ± 43.5 ng·h/mL | 402 ± 39.2 ng·h/mL | 5.75 ± 0.11 h | 8.56 ± 0.09 h | 10.3 ± 0.15 h | 6 h | 57.7 ± 5.09 ng/mL | O=c1cc(-c2ccc(O)c(O)c2)oc2cc(O[C@@H]3O[C@H](CO)[C@@H](O)[C@H](O)[C@H]3O)cc(O)c12 [Cynaroside] | AUCs compared among the analytes: highest; correlation between CL, AUCs (AUC(0–t), AUC (0–∞)), t½, and dose: there was a correlation; pharmacokinetic process (Cmax and AUCs versus dosage): linear pharmacokinetic process; AUC(0-inf) [7]: 472 ± 31.3 ng·h/mL; AUC(0-t) [7]: 438 ± 27.6 ng·h/mL; half-life [7]: 5.1 ± 0.13 h; MRT last [7]: 7.51 ± 0.01 h; MRT inf [7]: 9.2 ± 0.11 h; Tmax [8]: 6 h; Cmax [9]: 79.5 ± 3.5 ng/mL; Tmax compared among the analytes (no matter the dosages): longest |
| 805.7 ± 251.3 mL/min/kg | 882.05 ± 234.11 L | 271.5 ± 60.7 mL/min/kg | 287.56 ± 59.62 L | 466.5 ± 143 mL/min/kg | 642.56 ± 174.23 L | 21.1 ± 6.95 ng·h/mL | 15.6 ± 4.99 ng·h/mL | 13.5 ± 1.64 h | 8.63 ± 0.2 h | 17.8 ± 2.23 h | 0.75 h | 2.51 ± 0.77 ng/mL | 22.3 ± 6.8 ng·h/mL | 14.4 ± 4.14 ng·h/mL | 18.7 ± 2.51 h | 8.19 ± 0.19 h | 23.3 ± 3.85 h | 0.75 h | 3.02 ± 0.58 ng/mL | COc1ccc(-c2cc(=O)c3c(OC)c(OC)c(OC)c(OC)c3o2)cc1OC [Nobiletin] | t1/2 (JHGs high dose 22.81 g/kg/d): 16.19 ± 7.02 h; AUC(0-inf) [7]: 25.9 ± 9.57 ng·h/mL; AUC(0-t) [7]: 17.9 ± 4.56 ng·h/mL; MRT last [7]: 7.37 ± 0.43 h; MRT inf [7]: 19.5 ± 7.12 h; Tmax [8]: 0.75 h; Cmax [9]: 4.46 ± 1.06 ng/mL; Tmax [10]: ≤ 2 h |
| 2357.3 ± 393.5 mL/min/kg | 1831.33 ± 158.35 L | 1602 ± 417.2 mL/min/kg | 1528.44 ± 295.01 L | 2679.2 ± 604.3 mL/min/kg | 2003.58 ± 215.42 L | 55.6 ± 13 ng·h/mL | 42.4 ± 8.94 ng·h/mL | 13.2 ± 1.77 h | 7.84 ± 0.03 h | 16.1 ± 1.86 h | 0.75 h | 6.6 ± 1.48 ng/mL | 59.2 ± 14.8 ng·h/mL | 48.6 ± 10.1 ng·h/mL | 11.1 ± 1.41 h | 6.91 ± 0.23 h | 12.7 ± 1.67 h | 0.75 h | 11.7 ± 2.03 ng/mL | COc1ccc(C(C)=O)c(O)c1 [Paeonol] | AUC(0-inf) [7]: 131 ± 20.9 ng·h/mL; AUC(0-t) [7]: 106 ± 6.95 ng·h/mL; half-life [7]: 9.02 ± 3.68 h; MRT last [7]: 7.77 ± 0.37 h; MRT inf [7]: 13.3 ± 3.52 h; Tmax [8]: 2 h; Cmax [9]: 15.7 ± 1.66 ng/mL; Tmax [10]: ≤ 2 h |
